Test results published in ChEMBL document CHEMBL1149941, “The design and synthesis of novel hydroxyproline inhibitors of HIV-1 proteinase” (Bioorg Med Chem Lett, 1993).

target: Human immunodeficiency virus type 1 protease (Human immunodeficiency virus 1, UniProt Q72874); assay: Inhibitory activity against HIV-1 proteinase

**Q.** `CC(C)CN1C[C@](O)([C@H](CC2CCCCC2)NC(=O)CC(C)(C)C)C[C@H]1C(=O)NC(C)(C)C` was tested. Which IC50 did it give?
**A.** The IC50 was 9 µM.

**Q.** For `CC(C)CN1CC(O)(CNC(=O)OC(C)(C)C)C[C@@H]1C(=O)NC(C)(C)C` (stereo not given in full), which IC50 is on record?
**A.** Its IC50 is greater than 90 µM.

**Q.** With `CC(C)CN1CC(O)(CNC(=O)[C@H]2N[C@@H]([C@H](NC(=O)Cc3ccccc3)C(=O)NCc3ccccc3)SC2(C)C)C[C@H]1C(=O)NC(C)(C)C` (stereo not given in full) as the compound, how does the IC50 read?
**A.** Its IC50 is 0.07 µM.

**Q.** Which IC50 does the source give for `CC(C)CN1CC(O)(CNC(=O)[C@@H]2N[C@@H]([C@H](NC(=O)Cc3ccccc3)C(=O)NCc3ccccc3)SC2(C)C)C[C@H]1C(=O)NC(C)(C)C` (stereo not given in full) here?
**A.** Its IC50 is 0.03 µM.

**Q.** With `CC(C)CN1CC(O)(CNC(=O)OC(C)(C)C)C[C@H]1C(=O)NC(C)(C)C` (stereo not given in full) as the compound, how does the IC50 read?
**A.** Its IC50 is greater than 90 µM.
